The source of these data is patent publication US7759366B2 (Sanofi-Aventis, priority 2006, dated 2010).

Where a name gives a salt, the structure may show the parent alone. Read-outs that look alike come from different tables or passages of the source. Bounds are passed on as bounds.

In experiment [1] the target is T1, hCB1R (Homo sapiens, UniProt P21554). The experiment is described as follows: Binding to the CB1 receptor ([3H]-SR141716A displacement). On the procedure: Binding to the CB1 Receptor:
Test compounds: The compounds (3 μl, 10 mM, 100% DMSO), pipetted into 96-well PP microtiter plates, were diluted with 27 μl of 100% DMSO (dimethyl sulfoxide). Proceeding from this solution, further 3-fold dilution steps were undertaken by transferring 10 μl in each case to a new PP microtiter plate and adding a further 20 μl of 100% DMSO. In each case 6 μl of these solutions were transferred into new 96-well PP microtiter plates and made up with 144 μl of assay buffer. The end concentrations ranged from 10 μM to 0.005 μM. Negative control: AM 251, dissolved in assay buffer with 1% DMSO, was added to the dilution series in the microtiter plates as a control. The end concentration was 1 μM. Blank control: assay buffer with 1% DMSO was added to the dilution series of the microtiter plates as a blank control.
Summary of the Assay Parameters:
High control: ^3H binding without addition of the compound
Low control: ^3H binding in the presence of 1 μM AM 251
The values were calculated using the corrected raw data.
The values reported were obtained as average values of a double determination. The IC50 values were calculated from the measurements with the program Xlfit, formula 205. Ki values were obtained from the IC50 and Kd values utilizing the Cheng-Prusoff equation: […]
Literature: Cheng, Y.-C., and Prusoff, W. H. (1973) Biochem. Pharmacol 22, 3099-3108

Experiment [2] concerns the target T1, hCB1R. Nature of the experiment: In vitro functional assay (FLIPR, intracellular Ca2+) with recombinant HEK293 cells, CB1. More on the design: expressed in transfected cells; host or cells: HEK293. The class given is cell-based. From the text:
In Vitro Functional Assays with Recombinant Cells:

Experiment [3] concerns the target hCB2R (Homo sapiens, UniProt P34972). Nature of the experiment: In vitro functional assay (FLIPR, intracellular Ca2+) with recombinant HEK293 cells, CB2.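 Note: intracellular Ca2+ was tracked with the fluorescent dye Fluo-4 loaded into the cells before test substance addition.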
Method: Function-testing assays were performed by means of the FLIPR technique (“Fluorometric Imaging Plate Reader”, Molecular Devices Corp.).
To this end, ligand-induced changes in the intracellular concentration of Ca^2+ in recombinant HEK293 cells, which expressed both a cannabinoid receptor (CB1 or CB2) and G-protein Galpha16, were determined. For the studies, cells were sown into 96-well microtiter plates (60 000 cells/well) and left to grow overnight. The medium was removed and the cells were incubated in buffer which contained the fluorescent dye Fluo-4. After this loading with dye, the cells were washed, test substance was added dissolved in buffer, the mixture was incubated for 20 minutes, a known cannabinoid receptor agonist as a reference agonist was added in buffer and, finally, the changes in the intracellular Ca^2+ concentration were measured in the FLIPR unit.
Setting [4] is: recombinant HEK293 cells expressing CB1 and Galpha16, 20 min preincubation, then reference agonist, Ca2+ change, read-out: hCB1R: FLIPR, IC50.
The mark [5] stands for this setting: read-out: hCB2R: FLIPR, IC50, recombinant HEK293 cells expressing CB2 and Galpha16, 20 min preincubation, then reference agonist, Ca2+ change.
[6] abbreviates: CHO-K1/cannabinoid CB1 protein 2 μg/well, [3H]-SR141716A 0.5 nM, Ki from IC50 by Cheng-Prusoff, average of double determination, read-out: hCB1R, binding Ki.

T1 sequence (P21554 whole entry): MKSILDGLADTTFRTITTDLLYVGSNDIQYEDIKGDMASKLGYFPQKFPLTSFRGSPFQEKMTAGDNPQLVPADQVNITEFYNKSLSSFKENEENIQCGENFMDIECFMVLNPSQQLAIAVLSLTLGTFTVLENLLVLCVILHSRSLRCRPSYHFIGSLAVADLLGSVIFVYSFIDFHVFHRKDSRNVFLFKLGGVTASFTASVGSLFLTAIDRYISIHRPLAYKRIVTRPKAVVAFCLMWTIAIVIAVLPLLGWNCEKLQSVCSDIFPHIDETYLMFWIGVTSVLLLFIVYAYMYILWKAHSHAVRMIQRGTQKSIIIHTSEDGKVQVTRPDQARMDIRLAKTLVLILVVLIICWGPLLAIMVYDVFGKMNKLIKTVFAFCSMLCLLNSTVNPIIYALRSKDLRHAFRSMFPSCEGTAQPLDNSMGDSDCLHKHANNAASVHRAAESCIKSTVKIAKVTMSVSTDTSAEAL
hCB2R, sequence (P34972 whole entry): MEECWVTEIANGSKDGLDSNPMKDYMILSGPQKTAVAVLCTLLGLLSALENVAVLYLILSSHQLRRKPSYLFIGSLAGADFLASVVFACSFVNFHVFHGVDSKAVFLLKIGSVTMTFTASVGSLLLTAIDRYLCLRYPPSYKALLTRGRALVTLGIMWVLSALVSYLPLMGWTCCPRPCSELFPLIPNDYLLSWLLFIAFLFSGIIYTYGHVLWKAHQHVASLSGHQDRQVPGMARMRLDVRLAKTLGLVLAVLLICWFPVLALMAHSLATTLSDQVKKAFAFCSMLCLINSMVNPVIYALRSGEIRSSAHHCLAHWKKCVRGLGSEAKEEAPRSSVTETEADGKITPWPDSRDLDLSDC

In the case of `CC1(C)C(=O)N(c2ccc(C#N)c(C(F)(F)F)c2)C(=O)N1Cc1ccccc1Nc1ccc(S(N)(=O)=O)cc1` [Example 68, 5,5-4-{2-[3-(4-Cyano-3-trifluoromethylphenyl)-5,5-dimethyl-2,4-dioxoimidazolidin-1-ylmethyl]phenylamino}benzene sulfonamide], the Ki in experiment [1] amounted to 0.016 µM. In addition, the IC50 in experiment [2] (setting [4]) worked out at 0.044 µM.
As for `COc1ccc(Nc2ccccc2CN2C(=O)N(c3ccc(C#N)c(C(F)(F)F)c3)C(=O)C2(C)C)cn1` [Example 83, 4-{3-[2-(6-methoxypyridin-3-ylamino)benzyl]-4,4-dimethyl-2,5-dioxoimidazolidin-1-yl}-2-trifluoromethylbenzonitrile], the IC50 was > 10 µM in experiment [3] (setting [5]) and 0.009 µM in experiment [2].
For `CC1(C)C(=O)N(c2ccc(C#N)c(C(F)(F)F)c2)C(=O)N1Cc1ccccc1Nc1ccc(C(N)=O)cc1` [Example 136, 4-{2-[3-(4-Cyano-3-trifluoromethylphenyl)-5,5-dimethyl-2,4-dioxoimidazolidin-1-ylmethyl]phenylamino}benzamide], in that order: > 10 µM and 0.005 µM.
Regarding `CC1(C)C(=O)N(c2ccc(C#N)c(C(F)(F)F)c2)C(=O)N1Cc1c(Cl)cc(Cl)cc1Nc1ccc(F)cc1F` [Example 36, 4-{3-[2,4-dichloro-6-(2,4-difluorophenylamino)benzyl]-4,4-dimethyl-2,5-dioxoimidazolidin-1-yl}-2-trifluoromethylbenzonitrile], the IC50 in experiment [3] (setting [5]) is > 10 µM; in experiment [2] it was 0.011 µM.
For `COC(=O)Cc1ccc(Nc2ccccc2CN2C(=O)N(c3ccc(C#N)c(C(F)(F)F)c3)C(=O)C2(C)C)cc1` [Example 82, methyl (4-{2-[3-(4-cyano-3-trifluoromethylphenyl)-5,5-dimethyl-2,4-dioxoimidazolidin-1-ylmethyl]phenylamino}phenyl)acetate], in that order: > 10 µM and 0.052 µM.
The like results for `CC1(C)C(=O)N(c2ccc(C#N)c(C(F)(F)F)c2)C(=O)N1Cc1ccccc1Nc1ccc(OC(F)(F)F)cc1F` [Example 85, 4-{3-[2-(2-fluoro-4-trifluoromethoxyphenylamino)benzyl]-4,4-dimethyl-2,5-dioxoimidazolidin-1-yl}-2-trifluoromethylbenzonitrile] were, in that order, > 10 µM and 0.007 µM.
For `CC1(C)C(=O)N(c2ccc(C#N)c(C(F)(F)F)c2)C(=O)N1Cc1ccccc1Nc1ccc(CC#N)cc1` [Example 78, 4-{3-[2-(4-cyanomethylphenylamino)benzyl]-4,4-dimethyl-2,5-dioxoimidazolidin-1-yl}-2-trifluoromethylbenzonitrile], in that order: > 10 µM and 0.004 µM.
As for `CC1(C)C(=O)N(c2ccc(F)c(C(F)(F)F)c2)C(=O)N1Cc1ccccc1Nc1ccc(C(=N)NO)cc1` [Example 143, 4-{2-[3-(4-Fluoro-3-trifluoromethylphenyl)-5,5-dimethyl-2,4-dioxoimidazolidin-1-ylmethyl]phenylamino}-N-hydroxybenzamidine hydrochloride], the IC50 in experiment [3] was > 10 µM; in experiment [2] (setting [4]), 0.013 µM.
For the compound `CC1(C)C(=O)N(c2ccc(C#N)c(C(F)(F)F)c2)C(=O)N1Cc1ccccc1Nc1ccc(F)cc1` [Example 2, 4-{3-[2-(4-fluorophenylamino)benzyl]-4,4-dimethyl-2,5-dioxoimidazolidin-1-yl}-2-trifluoromethylbenzonitrile], the IC50 in experiment [3] (setting [5]) was > 10 µM; in experiment [2] it was 0.011 µM.
For `CC1(C)C(=O)N(c2ccc(C#N)c(C(F)(F)F)c2)C(=O)N1Cc1ccccc1Nc1ccc(CC(N)=O)cc1` [Example 97, 2-(4-{2-[3-(4-Cyano-3-trifluoromethylphenyl)-5,5-dimethyl-2,4-dioxoimidazolidin-1-ylmethyl]phenylamino}phenyl)acetamide], in that order: > 10 µM and 0.007 µM.
In the case of `CC1(C)C(=O)N(c2ccc(C#N)c(C(F)(F)F)c2)C(=O)N1Cc1ccccc1Nc1ccc(CC(=O)O)cc1` [Example 92, (4-{2-[3-(4-cyano-3-trifluoromethylphenyl)-5,5-dimethyl-2,4-dioxoimidazolidin-1-ylmethyl]phenylamino}phenyl)acetic acid], the results for the IC50 in experiment [3] and in experiment [2] (setting [4]) were > 10 µM and 0.137 µM, respectively.
In the case of `COC(=O)c1ccc(Nc2ccccc2CN2C(=O)N(c3ccc(C#N)c(C(F)(F)F)c3)C(=O)C2(C)C)cn1` [Example 90, methyl 5-{2-[3-(4-cyano-3-trifluoromethylphenyl)-5,5-dimethyl-2,4-dioxoimidazolidin-1-ylmethyl]phenylamino}pyridine-2-carboxylate], the IC50 in experiment [3] (setting [5]) was > 10 µM; in experiment [2], 0.039 µM.
On to `CC1(C)C(=O)N(c2ccc(C#N)c(-c3ccccc3)c2)C(=O)N1Cc1ccc(F)cc1Nc1ccc(C(=O)O)cc1` [Example 227, 4-{2-[3-(6-cyanobiphenyl-3-yl)-5,5-dimethyl-2,4-dioxoimidazolidin-1-ylmethyl]-5-fluorophenylamino}benzoic acid], for which, in experiment [1] (setting [6]), the Ki was determined as 0.036 µM. Besides, in experiment [2] (setting [4]), the IC50 worked out at 0.016 µM.
In experiment [1], `CC1(C)C(=O)N(c2ccc(C#N)c(C(F)(F)F)c2)C(=O)N1Cc1ccc(C(F)(F)F)cc1Nc1ccc(F)cc1` [Example 55, 4-{3-[2-(4-Fluorophenylamino)-4-trifluoromethylbenzyl]-4,4-dimethyl-2,5-dioxoimidazolidin-1-yl}-2-trifluoromethylbenzonitrile] had a Ki of 0.008 µM. In addition, the IC50 in experiment [2] (setting [4]) turned out to be 0.01 µM.
In the case of `CC1(C)C(=O)N(c2ccc(C#N)c(C(F)(F)F)c2)C(=O)N1Cc1ccccc1Nc1ccc(C(=O)NCCCS(C)(=O)=O)cc1` [Example 173, 4-{2-[3-(4-Cyano-3-trifluoromethylphenyl)-5,5-dimethyl-2,4-dioxoimidazolidin-1-ylmethyl]phenylamino}-N-(3-methanesulfonylpropyl)benzamide], the Ki in experiment [1] was 0.034 µM.
`CC1(C)C(=O)N(c2ccc(F)c(C(F)(F)F)c2)C(=O)N1Cc1ccccc1Nc1ccc(Cl)cc1` [Example 25, 1-[2-(4-chlorophenylamino)benzyl]-3-(4-fluoro-3-trifluoromethylphenyl)-5,5-dimethylimidazolidine-2,4-dione]: the Ki in experiment [1] (setting [6]) is 0.006 µM.
`CCOC(=O)c1ccc(Nc2cc(C(F)(F)F)ccc2CN2C(=O)N(c3ccc(C#N)c(C(F)(F)F)c3)C(=O)C2(C)C)cc1` [Example 165, ethyl 4-{2-[3-(4-cyano-3-trifluoromethylphenyl)-5,5-dimethyl-2,4-dioxoimidazolidin-1-ylmethyl]-5-trifluoromethylphenylamino}benzoate] showed a Ki in experiment [1] of 0.016 µM.
Same read-out and setting: to `COc1ccc(Nc2ccccc2)c(CN2C(=O)N(c3ccc(C#N)c(C(F)(F)F)c3)C(=O)C2(C)C)c1` [Example 6, 4-[3-(5-Methoxy-2-phenylaminobenzyl)-4,4-dimethyl-2,5-dioxoimidazolidin-1-yl]-2-trifluoromethylbenzonitrile] belongs 0.021 µM.
Still for that read-out and setting: to `COC(=O)c1ccc(Nc2cc(OC)ccc2CN2C(=O)N(c3ccc(C#N)c(C(F)(F)F)c3)C(=O)C2(C)C)cc1` [Example 110, Methyl 4-{2-[3-(4-cyano-3-trifluoromethylphenyl)-5,5-dimethyl-2,4-dioxoimidazolidin-1-ylmethyl]-5-methoxyphenylamino}benzoate] belongs 0.005 µM; to `CC1(C)C(=O)N(c2ccc(F)c(C(F)(F)F)c2)C(=O)N1Cc1ccccc1Nc1ccc(F)cc1F` [Example 52, 1-[2-(2,4-difluorophenylamino)benzyl]-3-(4-fluoro-3-trifluoromethylphenyl)-5,5-dimethylimidazolidine-2,4-dione], 0.003 µM.
Compound `CC1(C)C(=O)N(c2ccc(C#N)c(C(F)(F)F)c2)C(=O)N1Cc1ccccc1Nc1ccc(Oc2ccccc2)cc1` [Example 128, 4-{4,4-dimethyl-2,5-dioxo-3-[2-(4-phenoxyphenylamino)benzyl]-imidazolidin-1-yl}-2-trifluoromethylbenzonitrile] yielded a Ki in experiment [1] of 0.002 µM.
As to `CC1(C)C(=O)N(c2ccc(C#N)c(C(F)(F)F)c2)C(=O)N1Cc1ccccc1Nc1ccc(C(=O)NN2CCCCC2)cc1` [Example 174, 4-{2-[3-(4-Cyano-3-trifluoromethylphenyl)-5,5-dimethyl-2,4-dioxoimidazolidin-1-ylmethyl]phenylamino}-N-piperidin-1-ylbenzamide], in experiment [1] (setting [6]), the Ki was found to be 0.144 µM.
`CC1(C)C(=O)N(c2ccc(C#N)c(C(F)(F)F)c2)C(=O)N1Cc1ccccc1Nc1ccc([N+](=O)[O-])cc1` [Example 112, 4-{4,4-dimethyl-3-[2-(4-nitrophenylamino)benzyl]-2,5-dioxoimidazolidin-1-yl}-2-trifluoromethylbenzonitrile]: in experiment [1], the Ki came to 0.001 µM.
